The results in this text go back to patent publication US10851053B2, “Chemical compounds” (GlaxoSmithKline Intellectual Property Development Limited, priority 2016, dated 2020).

In the first assay the test system is ATF4 translation (ATF4 pathway), SH-SY5Y-ATF4-NanoLuc cells. Put plainly: ATF4 cell based assay (ATF4 5'-UTR NanoLuc luciferase reporter, Thapsigargin induced cellular stress). To be noted: SH-SY5Y-ATF4-NanoLuc cells challenged with Thapsigargin for 14-18 hours; average of two or more experimental runs; read-out: average ATF4 pathway inhibitory activity (IC50). From the text: The ATF4 reporter assay measures the effect of Thapsigargin induced cellular stress on ATF4 expression. For this reporter assay, a stable cell line was created by transfecting SH-SY5Y cells with a plasmid containing the NanoLuc® luciferase gene fused to the 5′-UTR of ATF4, under the control of the CMV promoter. The ATF4 5′-UTR contains two open reading frames which mediate the cellular stress-dependent translation of the reporter gene. Clones stably expressing the reporter construct were isolated and selected based on the luminescence response to thapsigargin and inhibition of this signal by test compounds. Briefly, SH-SY5Y-ATF4-NanoLuc cells were challenged with Thapsigargin for 14-18 hours to determine the stress effect with or without test compounds.
Cells were propagated in growth media consisting of 90% DMEM F12 (InVitrogen #11320-033), 10% Fetal Bovine Serum (Gibco #10438-026), 5 mM Glutamax (Gibco #35050-061), 5 mM Hepes, (Gibco #15630-080), and 0.5 mg/ml Geneticin (Gibco #10131-027). Cells were prepared for the assay by removing all media from cells, washing the plated cells with phosphate buffered saline, and detached by adding a solution comprised of 10% Tryple express solution (InVitrogen12604-021) and 90% enzyme-free cell dissociation buffer HANKS base (Gibco 13150-016). The trypsin was deactivated by adding assay media comprised of 90% phenol-red free DMEM F12 (InVitrogen, 11039), 10% Fetal Bovine Serum (Gibco #10438-026), (5 mM Glutamax (Gibco #35050-061), 5 mM Hepes, (Gibco #15630-080), and 0.5 mg/ml Geneticin (Gibco #10131-027). Suspended cells were spun down at 300 g for 5 min, the supernatant was removed and the cell pellet was suspended in warm media (30-37° C.) comprised as above at (1e6 cell/ml).
Assay plates were prepared by adding 250 nL of compound stock solution in 100% DMSO to each well, followed by dispensing 20 microliters/well cell suspension to deliver 15-20 k cell/well. Cells were incubated for 1 hour at 37° C. Then, 5 μL of 1.5 μM or 1 μM of Thapsigargin (final concentration: 200-300 nM) was added to each well of cells. Assay plates containing cells were incubated for 14-18 hours at 37° C.
The measurement of luciferase produced by the ATF4 constructs was measured as follows. Aliquots of the Nano-Glo reagent (Nano-Glo® Luciferase Assay Substrate, Promega, N113, Nano-Glo® Luciferase Assay Buffer, Promega, N112 (parts of Nano-Glo® Luciferase Assay System, N1150) were brought to room temperature, the substrate and buffer were mixed according to manufacturer's instructions. The cell plates were equilibrated to room temperature. 25 microliters/well of the mixed Nano-Glo reagent were dispensed into assay wells and pulse spun to settle contents and the plate was sealed with film. The plates were incubated at room temperature for 1 hour before detecting luminescence on an Envision plate reader.
Compounds of the invention are tested for activity against ATF4 translation in the above assay.
For orientation: In a reporter assay the amount or activity of a reporter protein is the signal.
Broadly, the IC50 is the point on the concentration scale where inhibition reaches its midpoint. Turning to `O=C(COc1ccc(Cl)cc1)NCC1CCN(C(=O)COc2ccc(Cl)nc2)C1` (racemic) [Example 20, 2-(4-chlorophenoxy)-N-((1-(2-((6-chloropyridin-3-yl)oxy)acetyl)pyrrolidin-3-yl)methyl)acetamide], the IC50 fell in the range of 1 to 10 µM.
On to `O=C(COc1ccc(Cl)cc1)NCC1CCN(C(=O)COc2ccc(Cl)nc2)C1` (single isomer, unassigned) [Example 11, 2-(4-chlorophenoxy)-N-((1-(2-((6-chloropyridin-3-yl)oxy)acetyl)pyrrolidin-3-yl)methyl)acetamide], for which the IC50 fell in the range of 1 to 10 µM.
As to `O=C(COc1ccc(Cl)cc1)NC1C[C@@H]2CN(C(=O)COc3ccc(Cl)cc3)CC12` (stereo in doubt) [Example 32, 2-(4-chlorophenoxy)-N-((1S,5R)-3-(2-(4-chlorophenoxy)acetyl)-3-azabicyclo[3.2.0]heptan-6-yl)acetamide], the IC50 is less than 0.1 µM.
As to `O=C(COc1ccc(Cl)cc1)NCC1CC(=O)N(CCOc2ccc(Cl)cc2)C1` (stereo not drawn) [Example 3, 2-(4-chlorophenoxy)-N-((1-(2-(4-chlorophenoxy)ethyl)-5-oxopyrrolidin-3-yl)methyl)acetamide], the IC50 was less than 0.1 µM.
Same read-out and setting: for `O=C(COc1ccc(Cl)cc1)NCC1CCN(CC(=O)Nc2ccc(Cl)cc2)C1` (stereo not drawn) [Example 4, 2-(4-chlorophenoxy)-N-((1-(2-((4-chlorophenyl)amino)-2-oxoethyl)pyrrolidin-3-yl)methyl)acetamide] the value was less than 0.1 µM.
On the same count and under the same terms, under `O=C(COc1ccc(Cl)cc1)N1CC2CN(C(=O)COc3ccc(Cl)cc3)CC2C1` (stereo not drawn) [Example 6, 1,1′-(tetrahydropyrrolo[3,4-c]pyrrole-2,5(1H,3H)-diyl)bis(2-(4-chlorophenoxy)ethanone)] stands 1 to 10 µM.
On the same count and under the same terms, under `O=C(COc1ccc(Cl)cc1)NC1CCN(C(=O)COc2ccc(Cl)cc2)C1` (stereo not drawn) [Example 7, 2-(4-chlorophenoxy)-N-(1-(2-(4-chlorophenoxy)acetyl)pyrrolidin-3-yl)acetamide] stands 1 to 10 µM; under `O=C(COc1ccc(Cl)cc1)NCC1CCN(C(=O)C2CCc3cc(Cl)ccc3O2)C1` (stereo not drawn) [Example 8, N-((1-(6-chlorochroman-2-carbonyl)pyrrolidin-3-yl)methyl)-2-(4-chlorophenoxy)acetamide], less than 0.1 µM.
In the case of `O=C(COc1ccc(Cl)cc1)NCC1CCN(C(=O)C2Cc3cc(Cl)ccc3O2)C1` (stereo not drawn) [Example 9, N-((1-(5-chloro-2,3-dihydrobenzofuran-2-carbonyl)pyrrolidin-3-yl)methyl)-2-(4-chlorophenoxy)acetamide], the IC50 lay within 0.101 to 1 µM.
`O=C(COc1ccc(Cl)cc1)NCC1CCN(C(=O)COc2cncc(Cl)c2)C1` (stereo not drawn) [Example 10, 2-(4-chlorophenoxy)-N-((1-(2-((5-chloropyridin-3-yl)oxy)acetyl)pyrrolidin-3-yl)methyl)acetamide]: the IC50 was in the range of 1 to 10 µM.
Same read-out and setting: for `O=C(COc1ccc(Cl)cc1)NCC1CCN(CCOc2ccc(Cl)nc2)C1` (stereo not drawn) [Example 13, 2-(4-chlorophenoxy)-N-((1-(2-((6-chloropyridin-3-yl)oxy)ethyl)pyrrolidin-3-yl)methyl)acetamide] the value was 1 to 10 µM; for `O=C(COc1ccc(Cl)cc1)NCC1CCN(C(=O)CCOc2ccc(Cl)cc2)C1` (stereo not drawn) [Example 14, 2-(4-chlorophenoxy)-N-((1-(3-(4-chlorophenoxy)propanoyl)pyrrolidin-3-yl)methyl)acetamide], less than 0.1 µM.
`O=C(COc1ccc(Cl)cc1)NCC1CCN(C(=O)OCCc2ccc(Cl)cc2)C1` (stereo not drawn) [Example 15, 4-chlorophenethyl 3-((2-(4-chlorophenoxy)acetamido)methyl)pyrrolidine-1-carboxylate]: the half-maximal inhibitory concentration (IC50) was less than 0.1 µM.
Still for that read-out and setting: for `O=C(COc1ccc(Cl)cc1)NCCC1CCN(C(=O)COc2ccc(Cl)cc2)C1` (stereo not drawn) [Example 16, 2-(4-chlorophenoxy)-N-(2-(1-(2-(4-chlorophenoxy)acetyl)pyrrolidin-3-yl)ethyl)acetamide] the value was 0.101 to 1 µM.
Same read-out and setting: for `CC1(CNC(=O)COc2ccc(Cl)cc2)CCN(C(=O)COc2ccc(Cl)cc2)C1` (stereo not drawn) [Example 17, 2-(4-chlorophenoxy)-N-((1-(2-(4-chlorophenoxy)acetyl)-3-methylpyrrolidin-3-yl)methyl)acetamide] the value was 1 to 10 µM; for `O=C(NCC1CCN(C(=O)COc2ccc(Cl)cc2)C1)C1Cc2cc(Cl)ccc2O1` (stereo not drawn) [Example 18, 5-chloro-N-((1-(2-(4-chlorophenoxy)acetyl)pyrrolidin-3-yl)methyl)-2,3-dihydrobenzofuran-2-carboxamide], 0.101 to 1 µM.
Still for that read-out and setting: under `O=C(COc1ccc(Cl)nc1)NCC1CCN(C(=O)COc2ccc(Cl)cc2)C1` (stereo not drawn) [Example 19, N-((1-(2-(4-chlorophenoxy)acetyl)pyrrolidin-3-yl)methyl)-2-((6-chloropyridin-3-yl)oxy)acetamide] stands 1 to 10 µM; under `O=C(COc1ccc(Cl)cc1)N1CCC(CNCCOc2ccc(Cl)cc2)C1` (stereo not drawn) [Example 21, 2-(4-chlorophenoxy)-1-(3-(((2-(4-chlorophenoxy)ethyl)amino)methyl)pyrrolidin-1-yl)ethanone], 0.101 to 1 µM; under `O=C(NCC1CCN(C(=O)COc2ccc(Cl)cc2)C1)C1CCc2cc(Cl)ccc2O1` (stereo not drawn) [Example 22, 6-chloro-N-((1-(2-(4-chlorophenoxy)acetyl)pyrrolidin-3-yl)methyl)chroman-2-carboxamide], less than 0.1 µM.
On to `O=C(COc1ccc(Cl)cc1)NC1CCC2(CC1)CCN(C(=O)COc1ccc(Cl)cc1)C2` (stereo not drawn) [Example 23, 2-(4-chlorophenoxy)-N-(2-(2-(4-chlorophenoxy)acetyl)-2-azaspiro[4.5]decan-8-yl)acetamide], for which the IC50 is less than 0.1 µM.
`O=C(COc1ccc(Cl)cc1)NCC1CCN(C(=O)N2CCc3cc(Cl)ccc3C2)C1` (stereo not drawn) [Example 24, N-((1-(6-chloro-1,2,3,4-tetrahydroisoquinoline-2-carbonyl)pyrrolidin-3-yl)methyl)-2-(4-chlorophenoxy)acetamide]: the IC50 fell in the range of 0.101 to 1 µM.
For `O=C(COc1ccc(Cl)cc1)N1CCC2(CCN(C(=O)COc3ccc(Cl)cc3)C2)C1` [Example 26, 1,1′-(2,7-diazaspiro[4.4]nonane-2,7-diyl)bis(2-(4-chlorophenoxy)ethanone)], the IC50 lay in the range of 1 to 10 µM.
For the molecule `O=C(COc1ccc(Cl)cc1)N[C@H]1[C@@H]2CN(CCCOc3ccc(Cl)cc3)C[C@@H]21` [Example 28, 2-(4-chlorophenoxy)-N-((1R,5S,6s)-3-(3-(4-chlorophenoxy)propyl)-3-azabicyclo[3.1.0]hexan-6-yl)acetamide], the IC50 was less than 0.1 µM.
The same measure, in the same setting: for `O=C(COc1ccc(Cl)cc1)NC[C@H]1CCN(C(=O)COc2ccc(Cl)cc2)C1` [Example 30] the value was 0.252 µM.
Same read-out and setting: for `O=C(COc1ccc(Cl)cc1)N[C@H]1[C@@H]2CN(C(=O)COc3ccc(Cl)cc3)C[C@@H]21` [Example 31, 2-(4-chlorophenoxy)-N-((1R,5S,6s)-3-(2-(4-chlorophenoxy)acetyl)-3-azabicyclo[3.1.0]hexan-6-yl)acetamide] the value was 0.101 to 1 µM; for `O=C(COc1ccc(Cl)cc1)NOC1CCN(C(=O)COc2ccc(Cl)cc2)C1` (stereo not drawn) [Example 33, 2-(4-chlorophenoxy)-N-((1-(2-(4-chlorophenoxy)acetyl)pyrrolidin-3-yl)oxy)acetamide], 0.101 to 1 µM.

The assay is the same for the next values; noted with them: read-out: average ATF4 pathway inhibitory activity (IC50).
Consider `O=C(COc1ccc(Cl)cc1)NCC1CCN(C(=O)COc2ccc(Cl)cc2)C1` (stereo not drawn) [Example 1, 2-(4-chlorophenoxy)-N-((1-(2-(4-chlorophenoxy)acetyl)pyrolidin-3-yl)methyl)acetamide], for which the 50% inhibitory concentration (IC50) was in the range of 0.101 to 1 µM.
Regarding `O=C(COc1ccc(Cl)cc1)NCC1CCN(CCOc2ccc(Cl)cc2)C1` (stereo not drawn) [Example 2, 2-(4-chlorophenoxy)-N-((1-(2-(4-chlorophenoxy)ethyl)pyrrolidin-3-yl)methyl)acetamide], the IC50 is less than 0.1 µM.
The same measure, in the same setting: for `O=C(COc1ccc(Cl)cc1)NC[C@@H]1CCN(C(=O)COc2ccc(Cl)cc2)C1` [Example 29, (S)-2-(4-chlorophenoxy)-N-((1-(2-(4-chlorophenoxy)acetyl)pyrrolidin-3-yl)methyl)acetamide] the value was 0.101 to 1 µM; for `O=C(COc1ccc(Cl)cc1)NC[C@H]1CCN(C(=O)COc2ccc(Cl)cc2)C1` [Example 30], 0.101 to 1 µM.
